{"source": "patent US20250325625A1", "about": "“ANTIMICROBIAL ASSOCIATION IN THE TREATMENT OF P. AERUGINOSA BIOFILM-ASSOCIATED INFECTIONS” (Zambon S.P.A., priority 2022, published 2025)", "key": {"[1]": {"tested_on": "P. aeruginosa preformed biofilms", "assay": "Biofilm susceptibility testing, Nunc-TSP lid system (Calgary biofilm device), preformed biofilms", "format": "cell-based", "settings": "P. aeruginosa Z154, NAC 8000 mg/L", "procedure": "In the present invention the Calgary biofilm device (also referred to as Nunc-TSP lid system in the experimental part) was the method selected to test the in vitro antibiofilm activity of colistin and NAC, alone or in combination. NAC stock solutions (100 g/L) were prepared immediately before use. NAC powder (Zambon, Bresso, Italy) was dissolved in sterile distilled water, pH was adjusted at 6.5-6.8 with NaOH 10 M and the solution was filtered through a 0.22-μm membrane filter. All experiments were performed in cation-adjusted Mueller-Hinton broth (CAMHB) (Becton Dickinson, Milan, Italy), unless otherwise specified, starting from an appropriately concentrated medium to avoid broth dilution when NAC solution were used.\nColistin Colistin stock solutions (10 mg/L) were prepared immediately before use, by dissolving colistin powder (colistin sulfate, AppliChem, Darmstadt, Germany) in sterile distilled water.\nAssay. Biofilm susceptibility testing was first performed using the Nunc-TSP lid system (Thermo Fisher Scientific, Waltham, MA, USA), as described previously (Harrison J J et al., Nat Protoc, 2010; 5: 1236-54). Briefly, biofilms were grown for 24 hours in CAMHB at 35° C. under static conditions. […] Median cfu per peg (cfu/peg) was then determined by plating 10 μL of appropriate dilutions of the recovery medium onto tryptic soy agar (TSA) (Oxoid) and incubating for 24 hours at 35° C. […]"}, "[2]": {"tested_on": "P. aeruginosa strains", "assay": "Antimicrobial susceptibility (MIC), reference broth microdilution method", "format": "cell-based", "procedure": "Fifteen clinical isolates were from CF, a MDR clinical isolate from Respiratory Tract Infection (RTI) from an Intensive Care Unit (ICU), and the reference strain P. aeruginosa PAO1 (Table 1). Identification was performed by MALDI-TOF MS (Bruker, Shimadzu). Antimicrobial susceptibility was determined using the reference broth microdilution method (CLSIMethods2018). Whole genome sequencing of clinical isolates was performed with the Illumina (San Diego, CA, USA) MiSeq platform, using a 2×150 bp paired-end approach. Raw reads were assembled using SPAdes (Bankevich et al. 2012 J Comput Biol 19(5):455-77.), and draft genomes were used to determine MLST- and O-types at the Oxford PubMLST site (https://pubmlst.org/) (Jolley et al. 2018 Wellcome Open Res 3:124) and at the Center for Genomic Epidemiology site (https://cge.cbs.dtu.dk/services/PAst-1.0/) (ThraneJCM2016), respectively. The complete genome of P. aeruginosa Z154 was obtained by combining results from Illumina with those obtained using the Oxford Nanopore Technologies (Oxford, UK) MinION platform, and de novo assembly was generated using Unicycler v0.4.4."}, "[3]": {"tested_on": "collection of respiratory pathogens", "settings": "high NAC concentrations; Landini et al. 2016; cited from earlier work"}, "[4]": {"tested_on": "P. aeruginosa Z154 and Z34 preformed biofilms in ASM", "assay": "Artificial Sputum Medium (ASM) biofilm model", "format": "cell-based", "procedure": "Methods. The potential antibiofilm synergism of NAC/colistin combinations was further investigated using an in vitro ASM biofilm model (Kirchner et al. 2012 Immunology 64:e3857), in order to mimic P. aeruginosa biofilm conditions within the CF mucus. […] In brief, biofilms were grown in ASM in 24-well tissue culture treated plates, for 72 hours at 35° C. under static conditions. Preformed biofilms were then exposed to NAC 8000 mg/L and colistin 64 mg/L, alone and in combination. […] After 24 hours of exposure (i.e., 35° C., static conditions), bacterial biofilms were disrupted by 30 minutes of sonication followed by manual pipetting, and the median cfu per mL (cfu/mL) was determined following the same protocol described for the Nunc-TSP lid assay. Data from this biofilm model were obtained in at least three independent experiments, with at least twelve replicates per condition per experiment."}, "[5]": {"tested_on": "P. aeruginosa strains", "assay": "Antimicrobial susceptibility (MIC), reference broth microdilution method", "format": "cell-based", "settings": "isolate FC237, in the presence of NAC"}, "[6]": {"tested_on": "P. aeruginosa Z154 planktonic culture", "assay": "Time-kill assays against planktonic cultures under aerobic and anaerobic conditions", "format": "cell-based", "settings": "colistin concentration higher than 0.25 mg/L, data not shown", "procedure": "Methods. Time-kill assays were performed according to CLSI guidelines (CLSI Methods M26A) with the colistin-susceptible strain Z154. Colistin 0.25 mg/L was tested alone and in combination with NAC 8000 mg/L under both aerobic and anaerobic conditions. […] The medium (CAMHB) used to obtain anoxic cultures was placed under anaerobic atmosphere by using AnaeroGen kit (Oxoid) for 3 days prior to use and during the whole experiment. The killing curves were carried out in borosilicate glass bottles with a final volume of 20 mL of CAMHB. At 0, 2, 4, 8 and 24 hours of exposure ten-fold dilutions were plated on TSA, and the number of cfu/mL was determined (detection limit, 17 cfu/mL). Data were obtained from at least four independent experiments, with two replicates per condition per experiment."}}, "note": "Read-outs that look alike come from different tables or passages of the source.", "data": [{"compound": "CC(=O)N[C@@H](CS)C(=O)O", "note": "[NAC, N-acetylcysteine]", "values": [{"measurement": "antibiofilm activity of NAC alone", "setting": "[1]", "result": "observed"}, {"measurement": "MIC", "setting": "[2]; Pseudomonas aeruginosa, PAO1, strain PAO1, non-mucoid, wound, read-out: MIC", "result": "> 64", "unit": "mg/mL"}, {"measurement": "MIC", "setting": "[2]; Pseudomonas aeruginosa, strain FC237, non-mucoid, CF, colistin-resistant, read-out: MIC", "result": "> 32", "unit": "mg/mL"}, {"measurement": "MIC", "setting": "[2]; Pseudomonas aeruginosa, strain FC238, non-mucoid, CF, colistin-resistant, read-out: MIC", "result": "> 32", "unit": "mg/mL"}, {"measurement": "MIC", "setting": "[2]; Pseudomonas aeruginosa, strain FZ99, non-mucoid, RTI ICU, colistin-resistant, read-out: MIC", "result": 64, "unit": "mg/mL"}, {"measurement": "MIC", "setting": "[2]; Pseudomonas aeruginosa, strain M1, mucoid, CF, read-out: MIC", "result": 16, "unit": "mg/mL"}, {"measurement": "MIC", "setting": "[2]; Pseudomonas aeruginosa, strain M4, mucoid, CF, read-out: MIC", "result": 32, "unit": "mg/mL"}, {"measurement": "MIC", "setting": "[2]; Pseudomonas aeruginosa, strain M7, mucoid, CF, read-out: MIC", "result": 64, "unit": "mg/mL"}, {"measurement": "MIC", "setting": "[2]; Pseudomonas aeruginosa, strain M13, mucoid, CF, read-out: MIC", "result": 32, "unit": "mg/mL"}, {"measurement": "MIC", "setting": "[2]; Pseudomonas aeruginosa, strain M19, mucoid, CF, read-out: MIC", "result": 64, "unit": "mg/mL"}, {"measurement": "MIC", "setting": "[2]; Pseudomonas aeruginosa, strain M25, mucoid, CF, read-out: MIC", "result": 16, "unit": "mg/mL"}, {"measurement": "MIC", "setting": "[2]; Pseudomonas aeruginosa, strain M32, mucoid, CF, read-out: MIC", "result": 16, "unit": "mg/mL"}, {"measurement": "MIC", "setting": "[2]; Pseudomonas aeruginosa, strain M42, mucoid, CF, read-out: MIC", "result": "> 32", "unit": "mg/mL"}, {"measurement": "MIC", "setting": "[2]; Pseudomonas aeruginosa, strain Z33, non-mucoid, CF, read-out: MIC", "result": 16, "unit": "mg/mL"}, {"measurement": "MIC", "setting": "[2]; Pseudomonas aeruginosa, strain Z34, non-mucoid, CF, read-out: MIC", "result": "> 16", "unit": "mg/mL"}, {"measurement": "MIC", "setting": "[2]; Pseudomonas aeruginosa, strain Z35, non-mucoid, CF, read-out: MIC", "result": 16, "unit": "mg/mL"}, {"measurement": "MIC", "setting": "[2]; Pseudomonas aeruginosa, strain Z152, mucoid, CF, read-out: MIC", "result": 8, "unit": "mg/mL"}, {"measurement": "MIC", "setting": "[2]; Pseudomonas aeruginosa, strain Z154, mucoid, CF, read-out: MIC", "result": 16, "unit": "mg/mL"}, {"measurement": "effect on activity of carbapenems", "setting": "[3]", "result": "compromised the activity of carbapenems"}, {"measurement": "interference with activity of the most commonly used antibiotics", "setting": "[3]", "result": "do not interfere"}, {"measurement": "antibiofilm activity of NAC alone", "setting": "[4]; P. aeruginosa Z154, ASM model, NAC 8000 mg/L", "result": "not observed"}]}, {"compound": "colistin [CST]", "values": [{"measurement": "colistin MIC values", "setting": "[2]; colistin-susceptible strains", "result": "0.001 to 0.002", "unit": "mg/mL"}, {"measurement": "MIC", "setting": "[2]; strain FC237, non-mucoid, CF, colistin-resistant", "result": 0.512, "unit": "mg/mL"}, {"measurement": "MIC", "setting": "[2]; strain FC238, non-mucoid, CF, colistin-resistant", "result": 0.008, "unit": "mg/mL"}, {"measurement": "MIC", "setting": "[2]; strain FZ99, non-mucoid, RTI ICU, colistin-resistant", "result": 0.004, "unit": "mg/mL"}, {"measurement": "MIC", "setting": "[2]; strain M1, mucoid, CF", "result": 0.002, "unit": "mg/mL"}, {"measurement": "MIC", "setting": "[2]; strain M4, mucoid, CF", "result": 0.002, "unit": "mg/mL"}, {"measurement": "MIC", "setting": "[2]; strain M7, mucoid, CF", "result": 0.002, "unit": "mg/mL"}, {"measurement": "MIC", "setting": "[2]; strain M13, mucoid, CF", "result": 0.001, "unit": "mg/mL"}, {"measurement": "MIC", "setting": "[2]; strain M19, mucoid, CF", "result": 0.001, "unit": "mg/mL"}, {"measurement": "MIC", "setting": "[2]; strain M25, mucoid, CF", "result": 0.002, "unit": "mg/mL"}, {"measurement": "MIC", "setting": "[2]; strain M32, mucoid, CF", "result": 0.002, "unit": "mg/mL"}, {"measurement": "MIC", "setting": "[2]; strain M42, mucoid, CF", "result": 0.002, "unit": "mg/mL"}, {"measurement": "MIC", "setting": "[2]; strain PAO1, non-mucoid, wound", "result": 0.002, "unit": "mg/mL"}, {"measurement": "MIC", "setting": "[2]; strain Z33, non-mucoid, CF", "result": 0.001, "unit": "mg/mL"}, {"measurement": "MIC", "setting": "[2]; strain Z34, non-mucoid, CF", "result": 0.002, "unit": "mg/mL"}, {"measurement": "MIC", "setting": "[2]; strain Z35, non-mucoid, CF", "result": 0.001, "unit": "mg/mL"}, {"measurement": "MIC", "setting": "[2]; strain Z152, mucoid, CF", "result": 0.002, "unit": "mg/mL"}, {"measurement": "MIC", "setting": "[2]; strain Z154, mucoid, CF", "result": 0.002, "unit": "mg/mL"}, {"measurement": "colistin MIC reduced in the presence of NAC (fraction of MIC)", "setting": "[5]", "result": "1/64"}, {"measurement": "effect on planktonic cultures", "setting": "[6]", "result": "eradication of the planktonic cultures"}, {"measurement": "concentration of colistin which allowed to observe a synergism", "setting": "[4]; ASM model, with NAC 8000 mg/L", "result": 32, "unit": "×MIC"}, {"measurement": "antibiofilm activity of colistin in absence of NAC", "setting": "[4]; higher colistin concentrations (>64 mg/L), data not shown", "result": "eradication of the biofilm cultures"}, {"measurement": "colistin antibiofilm activity", "setting": "[4]; lower colistin concentrations, preliminary experiments, data not shown", "result": "did not show either colistin antibiofilm activity"}]}]}
